Measured values reported in US8058437B2, “(Pyrroloquinoxalinyl) pyrazinecarbohydrazide-oxalic acid co-crystal for treatment of cancer and other diseases” (Novelix Pharmaceuticals, Inc., priority 2008, dated 2011).
“And” between values parts separate entries of the source, which are not always exact repeats. Identical values can stand only once. Like-named read-outs stand apart in the source and are kept apart here.

Columns and labels:
[1] = Pharmacokinetic experiments in rats (IV, oral suspension, oral solution); format: in vivo; details: rat; for concentration at 0.5 h / concentration at 1 h / concentration at 4 h / concentration at 8 h: oral; for bioavailability: adjusted for dose
Description: The oral suspension formulation was prepared by suspending the test article in 5% PEG-200/95% of a 0.5% solution of methylcellulose. The concentration of the test article was such that a dosing volume of 10 mL/kg delivered the intended dose level. The oral solution formulations of NVX-144 and NVX-412 were prepared by dissolving the test article in 10% by volume dimethyl acetamide, followed by 60% by volume PEG-400, and then adding slowly a solution of 30% Captisol® in 50 mM lactic acid to provide the remaining 30% of volume. The concentration of the test article was such that a dosing volume of 10 mL/kg delivered the intended dose level. The IV formulation of NVX-412 was prepared by dissolving the test article in 10% by volume dimethyl acetamide, followed by 10% by volume PEG-400, and then adding slowly a solution of 10% Captisol® in 50 mM lactic acid to provide the remaining 80% of volume. The concentration of the test articles was such that a dosing volume of 2.5 mL/kg delivered the intended dose level. The doses administered were based on the body weight of each animal taken shortly before dosing. The formulations were used immediately after preparation.
A total of 15 rats were assigned to the study. Five groups of three male rats each comprised the study. Each group was treated once by oral gavage or intravenous injection via the tail vein as specified in Table 3 below.
The animals were fasted overnight prior to dosing and the feed returned approximately 2 hours post-dosing. The dose for each animal was based on the most recent body weight. Oral doses were administered by gavage. Animals received 10 mL/kg per single oral dose. Intravenous doses were administered by tail vein injection. The dose for each animal was based on the most recent body weight. Animals were dosed at 2.5 mL/kg per single intravenous dose.
Blood was collected from the animals in Groups 1 through 5 for pharmacokinetic analysis. Approximately 0.3 mL of blood was collected in potassium EDTA tubes via the orbital plexus at four time points (30 minutes, 1 hour, 4 hours, and 8 hours post-dose) from each rat treated by the oral route, and the blood samples were processed to prepare plasma. Blood was collected at four time points (5 minutes, 30 minutes, 1 hour, and 2 hours post-dose) from each rat treated by the intravenous route, and the blood samples were processed to prepare plasma. Animals were terminated (without necropsy) following their final sample collection.
The whole blood samples were centrifuged (˜1500×g) for a minimum of 10 minutes in a refrigerated centrifuge (set at ˜5° C.). Plasma was prepared and transferred within 30 minutes of blood collection/centrifugation to appropriately labeled tubes. The tubes were then frozen and stored in the dark at ≦−70° C. until analysis. The plasma samples were analyzed by LC-MS/MS to determine the plasma concentrations of NVX-144 and NVX-412. Pharmacokinetic analysis of the plasma concentration data was conducted using non-compartmental analysis with WinNonlin Version 4.1.

[2] = Salt formation experiments / physical characteristics of solid forms; format: physicochemical; details: free base prepared from NVX-144.HCl; salt formation with acids
Description: Thus, a series of experiments was conducted to assess the preparation of NVX-144 salts of acids other than hydrochloric acid as possible novel compounds better suited to pharmaceutical preparations. […] As expected, NVX-144 base readily formed salts with strong organic acids.
Although oxalic acid co-crystals are rare, Trask et al. have reported a co-crystal of caffeine with oxalic acid (see Trask et al., “Pharmaceutical Cocrystallization: Engineering a Remedy for Caffeine Hydration,” Crystal Growth & Design, 5, 1013-21 (2005)).
Thus NVX-144 would not be expected to form a salt with oxalic acid, a relatively strong dicarboxylic acid.

[3] = male, plasma, po, 20 mg/kg, Group 2, PO-Suspension 20 mg/kg, Mean N=3
[4] = male, plasma, po, 20 mg/kg, Group 2, PO-Suspension 20 mg/kg, individual animals
[5] = male, plasma, po, 20 mg/kg, Group 4, PO-Solution 20 mg/kg, Mean N=3
[6] = male, plasma, po, 20 mg/kg, Group 4, PO-Solution 20 mg/kg, individual animals
[7] = Group 2, PO-Suspension 20 mg/kg, Mean N=3, listed as NVX-144 Free Base
[8] = Group 2, PO-Suspension 20 mg/kg, individual animals, listed as NVX-144 Free Base
[9] = Group 4, PO-Solution 20 mg/kg, Mean N=3, listed as NVX-144 Free base
[10] = Group 4, PO-Solution 20 mg/kg, individual animals, listed as NVX-144 Free base

O=C(NNc1nc2cc(F)ccc2n2cccc12)c1cnccn1 [NVX-144, N′-(7-fluoropyrrolo[1,2a]quinoxalin-4-yl)pyrazine-2-carbohydrazide, reference compound]
concentration at 0.5 h ([1]; male, plasma, 20 mg/kg, Group 2, PO-Suspension 20 mg/kg, 0.5 hr, Mean): 479 ng/mL
concentration at 0.5 h ([1]; male, plasma, 20 mg/kg, Group 2, PO-Suspension 20 mg/kg, 0.5 hr, individual animals): 436 ng/mL
concentration at 1 h ([1]; male, plasma, 20 mg/kg, Group 2, PO-Suspension 20 mg/kg, 1 hr, Mean): 427 ng/mL
concentration at 4 h ([1]; male, plasma, 20 mg/kg, Group 2, PO-Suspension 20 mg/kg, 4 hr, Mean): 227 ng/mL
concentration at 4 h ([1]; male, plasma, 20 mg/kg, Group 2, PO-Suspension 20 mg/kg, 4 hr, individual animals): 270 ng/mL
concentration at 8 h ([1]; male, plasma, 20 mg/kg, Group 2, PO-Suspension 20 mg/kg, 8 hr, Mean): 10.9 ng/mL
concentration at 0.5 h ([1]; male, plasma, 20 mg/kg, Group 4, PO-Solution 20 mg/kg, 0.5 hr, Mean): 709 ng/mL
concentration at 0.5 h ([1]; male, plasma, 20 mg/kg, Group 4, PO-Solution 20 mg/kg, 0.5 hr, individual animals): 691 ng/mL
concentration at 1 h ([1]; male, plasma, 20 mg/kg, Group 4, PO-Solution 20 mg/kg, 1 hr, Mean): 643 ng/mL
concentration at 1 h ([1]; male, plasma, 20 mg/kg, Group 4, PO-Solution 20 mg/kg, 1 hr, individual animals): 570 ng/mL
concentration at 4 h ([1]; male, plasma, 20 mg/kg, Group 4, PO-Solution 20 mg/kg, 4 hr, Mean): 225 ng/mL
concentration at 4 h ([1]; male, plasma, 20 mg/kg, Group 4, PO-Solution 20 mg/kg, 4 hr, individual animals): 289 ng/mL
concentration at 8 h ([1]; male, plasma, 20 mg/kg, Group 4, PO-Solution 20 mg/kg, 8 hr, Mean): 31.5 ng/mL
AUC [1, 3]: 1800 ng·h/mL
AUC(0-inf) [1, 3]: 1830 ng·h/mL
Cmax ([1]; male, plasma, po, 20 mg/kg, Group 2, PO-Suspension 20 mg/kg, Mean N=3, read-out: Cmax): 487 ng/mL
half-life ([1]; male, plasma, po, 20 mg/kg, Group 2, PO-Suspension 20 mg/kg, Mean N=3, read-out: T ½ (converted)): 1.4 h
Tmax ([1]; male, plasma, po, 20 mg/kg, Group 2, PO-Suspension 20 mg/kg, Mean N=3, read-out: Tmax): 0.67 h
bioavailability ([1]; male, plasma, po, 20 mg/kg, Group 2, PO-Suspension 20 mg/kg, Mean N=3, versus mean IV AUCINF, read-out: Bioavailability): 34.7%
AUC [1, 4]: 1690 ng·h/mL
AUC(0-inf) [1, 4]: 1720 ng·h/mL
Cmax ([1]; male, plasma, po, 20 mg/kg, Group 2, PO-Suspension 20 mg/kg, individual animals, read-out: Cmax): 436 ng/mL
half-life ([1]; male, plasma, po, 20 mg/kg, Group 2, PO-Suspension 20 mg/kg, individual animals, read-out: T ½ (converted)): 1.66 h
Tmax ([1]; male, plasma, po, 20 mg/kg, Group 2, PO-Suspension 20 mg/kg, individual animals, read-out: Tmax): 0.5 to 1 h
bioavailability ([1]; male, plasma, po, 20 mg/kg, Group 2, PO-Suspension 20 mg/kg, individual animals, versus mean IV AUCINF, read-out: Bioavailability): 32.8%
AUC [1, 5]: 2330 ng·h/mL
AUC(0-inf) [1, 5]: 2520 ng·h/mL
Cmax ([1]; male, plasma, po, 20 mg/kg, Group 4, PO-Solution 20 mg/kg, Mean N=3, read-out: Cmax): 714 ng/mL
half-life ([1]; male, plasma, po, 20 mg/kg, Group 4, PO-Solution 20 mg/kg, Mean N=3, read-out: T ½ (converted)): 1.6 h
Tmax ([1]; male, plasma, po, 20 mg/kg, Group 4, PO-Solution 20 mg/kg, Mean N=3, read-out: Tmax): 0.67 h
bioavailability ([1]; male, plasma, po, 20 mg/kg, Group 4, PO-Solution 20 mg/kg, Mean N=3, versus mean IV AUCINF, read-out: Bioavailability): 46.1%
AUC [1, 6]: 2500 ng·h/mL
AUC(0-inf) [1, 6]: 2760 ng·h/mL
Cmax ([1]; male, plasma, po, 20 mg/kg, Group 4, PO-Solution 20 mg/kg, individual animals, read-out: Cmax): 691 ng/mL
Tmax ([1]; male, plasma, po, 20 mg/kg, Group 4, PO-Solution 20 mg/kg, individual animals, read-out: Tmax): 0.5 to 1 h
bioavailability ([1]; male, plasma, po, 20 mg/kg, Group 4, PO-Solution 20 mg/kg, individual animals, versus mean IV AUCINF, read-out: Bioavailability): 52.6%
plasma concentration ([1]; Group 2, PO-Suspension 20 mg/kg, 0.5 hr, individual animals, listed as NVX-144 Free Base): 428.07 ng/mL and 571.69 ng/mL
plasma concentration ([1]; Group 2, PO-Suspension 20 mg/kg, 1 hr, individual animals, listed as NVX-144 Free Base): 282.56 ng/mL and 401.49 ng/mL and 597.75 ng/mL
plasma concentration ([1]; Group 2, PO-Suspension 20 mg/kg, 4 hr, individual animals, listed as NVX-144 Free Base): 234.64 ng/mL and 175.82 ng/mL
plasma concentration ([1]; Group 2, PO-Suspension 20 mg/kg, 8 hr, individual animals, listed as NVX-144 Free Base): 14.92 ng/mL and 12.33 ng/mL and 5.37 ng/mL
AUC % Extrap ([1]; Group 2, PO-Suspension 20 mg/kg, Mean N=3): 1.32%
AUCINF [1, 7]: 1826.45 ng·h/mL
Cmax [1, 7]: 487.28 ng/mL
T ½ [1, 7]: 1.39 h
AUC % Extrap [1, 8]: 2.08% and 1.48% and 0.4%
AUCINF [1, 8]: 1789.00 ng·h/mL and 1965.88 ng·h/mL
AUCall [1, 8]: 1762.55 ng·h/mL and 1958.03 ng·h/mL
Cmax [1, 8]: 428.07 ng/mL and 597.75 ng/mL
T ½ [1, 8]: 1.49 h and 1.01 h
Tmax [1, 8]: 0.5 h and 1.0 h
bioavailability ([1]; Group 2, PO-Suspension 20 mg/kg, individual animals, versus mean IV AUCINF, listed as NVX-144 Free Base): 34.0% and 37.4%
plasma concentration ([1]; Group 4, PO-Solution 20 mg/kg, 0.5 hr, individual animals, listed as NVX-144 Free Base): 610.62 ng/mL and 824.32 ng/mL
plasma concentration ([1]; Group 4, PO-Solution 20 mg/kg, 1 hr, individual animals, listed as NVX-144 Free Base): 626.73 ng/mL and 731.54 ng/mL
plasma concentration ([1]; Group 4, PO-Solution 20 mg/kg, 4 hr, individual animals, listed as NVX-144 Free Base): 163.62 ng/mL and 221.82 ng/mL
plasma concentration ([1]; Group 4, PO-Solution 20 mg/kg, 8 hr, individual animals, listed as NVX-144 Free Base): 75.29 ng/mL and 5.57 ng/mL and 13.76 ng/mL
AUC % Extrap ([1]; Group 4, PO-Solution 20 mg/kg, Mean N=3): 3.61%
AUCINF [1, 9]: 2426.28 ng·h/mL
Cmax [1, 9]: 713.93 ng/mL
T ½ [1, 9]: 1.56 h
AUC % Extrap [1, 10]: 9.41% and 0.41% and 1.00%
AUCINF [1, 10]: 1994.04 ng·h/mL and 2521.47 ng·h/mL
AUCall [1, 10]: 1985.89 ng·h/mL and 2496.24 ng·h/mL
Cmax [1, 10]: 626.73 ng/mL and 824.32 ng/mL
T ½ [1, 10]: 2.39 h and 1.01 h and 1.27 h
Tmax [1, 10]: 0.5 h and 1.0 h
bioavailability ([1]; Group 4, PO-Solution 20 mg/kg, individual animals, versus mean IV AUCINF, listed as NVX-144 Free base): 37.9% and 48.0%
oral absorption ([1]; administered as a solution or suspension): moderate
basicity [2]: very weak base
